Data set [1] deals with guinea pig. To be noted: for erythema evaluation point, individual animal: group IV sensitized with DNCB; for ave. eval. (average of evaluation point) / positive ratio: positive comparison group IV sensitized with DNCB 0.1 w/v %. Here is the method:
Skin-Sensitize Test (Maximization Test)
This test is carried out by Juridical Foundation “Food and Medicine Safety Center” (Hatano-shi, Kanagawa) based on “Basic view about biological safety test necessary for petition of recognition of production (import) of medical device” (13.02.2003, Consideration of Medicine No. 0213001″ and “Reference materials regarding basic view of biological safety test” (19.03.2003, Examination of medical device No. 36).
Using methanol extraction of Verte Kimax 7th Sense, biological safety evaluation is obtained. And aiming to compare with Verte 710N, skin-sensitize test (maximization test) is carried out on a guinea pig using methanol extraction of Verte Kimax 7th Sense.
At the preparation of prescribing subject, methanol extract of Verte Kimax 7th Sense (hereinafter, shortened to 7th Sense-M) or methanol extract of Verte 710N (hereinafter, shortened to 710N-M) is suspended in ethanol by proportion of 1 mL to the extract obtained 1 g of analyte used for extraction, and 100 v/v % 7th Sense-M ethanol suspension and 100 v/v % 710N-M ethanol suspension are obtained. Further, BLANK obtained from methanol alone is poured into same amount of ethanol as used at the preparation of suspension of 7th Sense-M or 710N-M and 100 v/v % blank suspensions are prepared. In first skin-sensitize test, 100 v/v % 7th Sense-M ethanol suspension and 100 v/v % 710N-M ethanol suspension are replaced with same amount of olive oil, and 100 v/v % 7th Sense-M olive oil suspension and 100 v/v % 710N-M olive oil suspension are prepared. In second skin-sensitize test, 100 v/v % 7th Sense-M ethanol suspension and 100 v/v % 710N-M ethanol suspension are replaced with same amount of olive oil, and 100 v/v % 7th Sense-M olive oil suspension and 100 v/v % 710N-M olive oil suspension are prepared. In causing, 100 v/v % 7th Sense-M ethanol suspension and 100 v/v % 710N-M ethanol suspension are prepared by adding ethanol as stepwise. Further, 100 v/v % corresponding volume blank ethanol solution is used as is.
In first skin-sensitize test (treatment first day) 10 v/v % 7th Sense-M olive oil suspension or 10 v/v % 710N-M olive oil suspension and Freund's complete adjuvant are injected by intradermal injection in upper part of shoulder bone of a guinea pig. At 7 days after treatment, 10 v/v % sodium lauryl sulfate is open spread on region including intradermal injection part, and next day (8 days after treatment) 100 v/v % 7th Sense-M olive oil suspension or 100 v/v % 710N-M olive oil suspension is blockage patched to same region as second skin-sensitize test for 48 hours. In causing (22 days after treatment), 100, 20, 4, 0.8, and 0.16 v/v % ethanol suspension of 7th Sense-M or 710N-M and 100 v/v % corresponding volume BLANK ethanol solution are blockage patched for 24 hours.
Judgment is done according to judgment standard of Draize method after 24 hours and 48 hours from removal of patches.
(numbers of positive animal in group/numbers of animal in group)×100

The nature of data set [2]: Weight of individuals in the maximization test. It counts as in vivo, guinea pig. An excerpt: Results by Weight of Individuals
[3] abbreviates: causing conc. 0.01 w/v %, judge 24 hrs.
The mark [4] stands for this setting: causing conc. 0.01 w/v %, judge 48 hrs.
[5] abbreviates: causing conc. 0.1 w/v %, judge 24 hrs.
Where [6] appears, read: causing conc. 0.1 w/v %, judge 48 hrs.

Values joined by “and” are separate entries in the source; they are usually repeats but may differ in a detail not shown here. Identical values can stand only once. Like-named read-outs stand apart in the source and are kept apart here.

Consider `O=[N+]([O-])c1ccc(Cl)c([N+](=O)[O-])c1` [DNCB, 1-chloro-2,4-dinitrobenzene], for which the “erythema evaluation point, individual animal” value was 3 (4×) and 4 in data set [1] (causing 0.01 w/v % DNCB, judge time 24 hrs.); 3 (3×) and 4 (2×) in data set [1] (causing 0.01 w/v % DNCB, judge time 48 hrs.); 4 (4×) and 3 in data set [1] (causing 0.1 w/v % DNCB, judge time 24 hrs.); 4 in data set [1] (causing 0.1 w/v % DNCB, judge time 48 hrs.). Besides, the “ave. eval. (average of evaluation point)” value is given as 3.8 in data set [1] (setting [3]), 4.0 in data set [1] (setting [4]), 4.8 in data set [1] (setting [5]) and 5.2 in data set [1] (setting [6]). Moreover, the positive ratio in data set [1] (setting [3]), in data set [1] (setting [4]), in data set [1] (setting [5]) and in data set [1] (setting [6]) was 100 each time. The weight of individual is 472 and 420 and 444 and 453 and 440 in data set [2] (8th day); 521 and 426 and 470 and 496 and 485 in data set [2] (15th day); 572 and 485 and 521 and 536 and 529 in data set [2] (22nd day); 590 and 481 and 533 and 544 and 541 in data set [2] (25th day); 430 and 375 and 396 and 416 and 395 in data set [2] (first day); 356 and 333 and 354 and 369 and 344 in data set [2] (starting date of previous test). The “weight, group average” value amounted to 446 in data set [2] (8th day); 480 in data set [2] (15th day); 529 in data set [2] (22nd day); 538 in data set [2] (25th day); 402 in data set [2] (first day); 349 in data set [2] (starting date of previous test).

The record behind these values is patent publication US9267021B2 (KOSSAN SDN BHD, priority 2010, dated 2016).
